Data reported in US20100172836A1, “SYNTHESIS OF 18F-RADIOLABELED STYRYLPYRIDINES FROM TOSYLATE PRECURSORS AND STABLE PHARMACEUTICAL COMPOSITIONS THEREOF” (AVID RADIOPHARMACEUTICALS, INC., priority 2008, published 2010).
Converted amounts (≈) assume the structure as drawn.

Assays:
Assay type in all cases: physicochemical
[1] = Stability of ^18F-AV-45 drug product in vials, upright and inverted, at ambient, 40° C. and 50° C. over 12 hours; details: three lots
Experimental: The stability of the drug product was evaluated on three separate manufacturing lots of ^18F-AV-45. Vials were stored upright and inverted at ambient and 40° C. temperatures, and upright at 50° C. Drug product was sampled at the specified intervals over a 12 hour testing period and evaluated for radiochemical purity and strength.

[2] = Radiochemical purity of ^18F-AV-45 Injection with and without sodium ascorbate (HPLC with radiometric detection)
Experimental: The ^18F-AV-45 radiopharmaceutical compositions of embodiments of the invention are remarkably stable to radiolysis or chemical degradation. Sodium ascorbate is used to minimize radiolysis during the purification of ^18F-AV-45 and in the final drug product solution to increase stability and shelf life. Ethanol at 1-10% (v/v) in aqueous solution aids in the solubilization of ^18F-AV-45. […] The compositions were analyzed at end-of-synthesis (EOS) using reverse HPLC, equipped with both an ultra violet (UV) detector and radiochemical detector. The radiochemical purity of ^18F-AV-45 was monitored by HPLC with radiometric detection and the purity of ^19F-AV-45 was monitored by HPLC UV detection in the drug product by Area Percent Normalization. At EOS, the radiochemical purity of the ^18F-AV-45 composition prepared without sodium ascorbate was 84% and decomposed further such that at 2 hours the purity was 80%. […] At EOS, the purity was 96% with negligible decomposition at 2 hours post EOS (purity of 95%).

[3] = Extended stability of ^18F-AV-45 Injection formulated with sodium ascorbate at 0.5% (% RCP)
Experimental: (§1) The ^18F-AV-45 radiopharmaceutical compositions of embodiments of the invention are remarkably stable to radiolysis or chemical degradation. Sodium ascorbate is used to minimize radiolysis during the purification of ^18F-AV-45 and in the final drug product solution to increase stability and shelf life. Ethanol at 1-10% (v/v) in aqueous solution aids in the solubilization of ^18F-AV-45. […] The compositions were analyzed at end-of-synthesis (EOS) using reverse HPLC, equipped with both an ultra violet (UV) detector and radiochemical detector. The radiochemical purity of ^18F-AV-45 was monitored by HPLC with radiometric detection and the purity of ^19F-AV-45 was monitored by HPLC UV detection in the drug product by Area Percent Normalization.
As noted, the radiochemical purity of the ^18F compound is maintained for up to approximately 20 hours after production.

[4] = Solubility of AV-45 in the drug product composition (visual inspection, HPLC after centrifugation)
Experimental: The ^18F-AV-45 radiopharmaceutical formulation/composition was evaluated for the solubility of the non-radioactive ^19F-AV-45, which is also formed in quantities of 1-5 μg/mL during the radiosynthesis of ^18F-AV-45 due to the presence of small quantities of ^19F-fluoride from tubing, valves and other sources in the radiosynthesis system. In the absence of ethanol in the composition, particulate matter may be observed due to the low solubility of ^19F-AV-45. The addition of 10% ethanol to the radiopharmaceutical composition was, therefore, evaluated to determine if the solubility of ^19F-AV-45 was sufficient to avoid the potential of precipitate formation. […] A visible precipitate was noticeable in solutions with concentrations ≧22 μg/mL. Samples prepared at concentrations ≦20 μg/mL were evaluated by HPLC analysis following centrifugation. Samples with ≦20 μg/mL were also tested after storage for one week at ambient temperature.

[5] = UV purity of ^19F-AV-45 in ^18F-AV-45 Injection (HPLC UV detection at 350 nm, area percent)
Experimental: as §1

[6] = lot AV4520080304, manufactured without sodium ascorbate (444 MBq/mL), EOS
[7] = lot AV4520080603, manufactured with sodium ascorbate (1036 MBq/mL), EOS

CNc1ccc(/C=C/c2ccc(OCCOCCOCC[18F])nc2)cc1 [^18F-AV-45, (E)-4-(2-(6-(2-(2-(2-[^18F]fluoroethoxy)ethoxy)ethoxy)pyridin-3-yl)vinyl)-N-methylbenzenamine]
RCP over 12 hours ([1]; 10% (v/v) ethanol in normal saline, 0.5% (w/v) sodium ascorbate, vials upright and inverted at ambient and 40° C., upright at 50° C.): constant
drift of the drug product strength ([1]; over 12 hours, all temperatures tested (ambient, 40° C., 50° C.)): < 5%
% ^18F AV-45 Purity (radiochemical) ([2]; lot AV4520080304, manufactured without sodium ascorbate (444 MBq/mL), 2-hour post EOS): 80%
% ^18F AV-45 Purity (radiochemical) ([2]; lot AV4520080304, manufactured without sodium ascorbate (444 MBq/mL), 2-hour post EOS, listed as 18F AV-45): 80%
% ^18F AV-45 Purity (radiochemical) [2, 6]: 84%
% ^18F AV-45 Purity (radiochemical) ([2]; lot AV4520080304, manufactured without sodium ascorbate (444 MBq/mL), EOS, listed as 18F AV-45): 84%
% ^18F AV-45 Purity (radiochemical) ([2]; lot AV4520080603, manufactured with sodium ascorbate (1036 MBq/mL), 2-hour post EOS): 95%
% ^18F AV-45 Purity (radiochemical) ([2]; lot AV4520080603, manufactured with sodium ascorbate (1036 MBq/mL), 2-hour post EOS, listed as 18F AV-45): 95%
% ^18F AV-45 Purity (radiochemical) [2, 7]: 96%
% ^18F AV-45 Purity (radiochemical) ([2]; lot AV4520080603, manufactured with sodium ascorbate (1036 MBq/mL), EOS, listed as 18F AV-45): 96%
time after production for which radiochemical purity is maintained ([3]; approximately 10% (v/v) ethanol in normal saline containing 0.5% (w/v) sodium ascorbate): approximately 20 hours
RCP (stability maintained) ([3]; composition comprising ethyl alcohol and sodium ascorbate, up to 20 hours post-production): greater than 90%

CNc1ccc(/C=C/c2ccc(OCCOCCOCCF)nc2)cc1 [^19F-AV-45]
solubility limit ([4]; 10% (v/v) EtOH and 0.5% (w/v) sodium ascorbate in 0.9% aqueous sodium chloride, ambient temperature): 17 µg/mL (≈ 47.2 µM)
concentrations at which a visible precipitate was noticeable ([4]; drug product composition (10% EtOH, 0.5% sodium ascorbate, 0.9% NaCl)): ≥ 22 µg/mL
change in concentration after one week of storage ([4]; samples ≦20 μg/mL, ambient temperature, HPLC): no change in concentration
UV purity by area percent at 350 nm ([5]; lot AV4520080304, manufactured without sodium ascorbate (444 MBq/mL), 2-h post EOS): 76%
UV purity by area percent at 350 nm [5, 6]: 83%
UV purity by area percent at 350 nm ([5]; lot AV4520080603, manufactured with sodium ascorbate (1036 MBq/mL), 2-h post EOS): 100%
UV purity by area percent at 350 nm [5, 7]: 100%
